Source: ChEMBL document CHEMBL1201862, “PubChem BioAssay data set” (2004)
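Step 1: Grow cells in 96-well plates. Step 2: Expose to compound for 48 hours at 5 concentrations. Step 3: Interpolate endpoints linearly; if unreached, use highest concentration. Abbreviation: GI50, concentration required for 50% inhibition of growth.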 Activity calls are given as the source filed them. No stated cut-off is given here; in the data, active = GI50 up to about 1.1 µM and inactive = higher.

Key:
Assay in all cases: NCI anticancer screen, dose series, 48 h
[1] = tested on: SN12C
[2] = tested on: LOX IMVI
[3] = tested on: UACC-62
[4] = tested on: SNB-19
[5] = tested on: DLD-1
[6] = tested on: SK-OV-3
[7] = tested on: KM-20L2
[8] = tested on: SF-539
[9] = tested on: 786-0
[10] = tested on: IGROV-1
[11] = tested on: HCT-116
[12] = tested on: K562
[13] = tested on: COLO 205
[14] = tested on: M14
[15] = tested on: KM12
[16] = tested on: NCI-H23
[17] = tested on: UACC-257
[18] = tested on: SF-268
[19] = tested on: RXF 631
[20] = tested on: HT-29
[21] = tested on: SR
[22] = tested on: NCI-H226
[23] = tested on: OVCAR-4
[24] = tested on: SW-620
[25] = tested on: A549
[26] = tested on: NCI-H460
[27] = tested on: OVCAR-5
[28] = tested on: MOLT-4
[29] = tested on: NCI-H522
[30] = tested on: HOP-92
[31] = tested on: LXFL 529
[32] = tested on: OVCAR-3
[33] = tested on: SNB-78
[34] = tested on: RXF 393
[35] = tested on: TK-10
[36] = tested on: CCRF-CEM
[37] = tested on: SK-MEL-28
[38] = tested on: OVCAR-8
[39] = tested on: M19-MEL
[40] = tested on: RPMI-8226
[41] = tested on: HL-60
[42] = tested on: HOP-18
[43] = tested on: U-251
[44] = tested on: HOP-62
[45] = tested on: SK-MEL-5
[46] = tested on: ACHN
[47] = tested on: HCT-15
[48] = tested on: SF-295
[49] = tested on: CAKI-1
[50] = tested on: A498
[51] = tested on: DMS-114
[52] = tested on: Malme-3M
[53] = tested on: UO-31
[54] = tested on: SNB-75
[55] = tested on: XF498
[56] = tested on: DMS-273
[57] = tested on: EKVX
[58] = tested on: HCC 2998
[59] = tested on: SK-MEL-2

Measured: GI50

O=C(Nc1ccc(Cl)cc1Cl)c1c/c(=N\O)c2ccc(O)cc2o1
inactive: [1] > 100 µM | [2] > 100 µM | [3] > 100 µM | [4] > 100 µM | [5] > 100 µM | [6] > 100 µM | [7] > 100 µM | [8] > 100 µM | [9] > 100 µM | [10] > 100 µM | [11] > 100 µM | [12] > 100 µM | [13] > 100 µM | [14] > 100 µM | [15] > 100 µM | [16] > 100 µM | [17] > 100 µM | [18] > 100 µM | [19] > 100 µM | [20] > 100 µM | [21] > 100 µM | [22] > 100 µM | [23] > 100 µM | [24] > 100 µM | [25] > 100 µM | [26] > 100 µM | [27] > 100 µM | [28] > 100 µM | [29] > 100 µM | [30] > 100 µM | [31] > 100 µM | [32] > 100 µM | [33] > 100 µM | [34] > 100 µM | [35] > 100 µM | [36] > 100 µM | [37] > 100 µM | [38] > 100 µM | [39] > 100 µM | [40] > 100 µM | [41] > 100 µM | [42] > 100 µM | [43] > 100 µM | [44] > 100 µM | [45] > 100 µM | [46] > 100 µM | [48] > 100 µM | [49] > 100 µM | [50] > 100 µM | [51] > 100 µM | [52] > 100 µM | [53] > 100 µM | [54] 30.9 µM
> 100 µM: [47]

COc1ccc(-c2c3ccccc3c(-c3ccc(OC)cc3)c3ccccc23)cc1
inactive: [1] > 100 µM | [2] > 100 µM | [3] > 100 µM | [4] > 100 µM | [5] > 100 µM | [6] > 100 µM | [7] > 100 µM | [8] > 100 µM | [9] > 100 µM | [10] > 100 µM | [11] > 100 µM | [12] > 100 µM | [13] > 100 µM | [14] > 100 µM | [15] > 100 µM | [16] > 100 µM | [17] > 100 µM | [18] > 100 µM | [20] > 100 µM | [21] > 100 µM | [22] > 100 µM | [23] > 100 µM | [24] > 100 µM | [25] > 100 µM | [55] > 100 µM | [56] > 100 µM | [26] > 100 µM | [27] > 100 µM | [57] > 100 µM | [28] > 100 µM | [29] > 100 µM | [30] > 100 µM | [31] > 100 µM | [32] > 100 µM | [33] > 100 µM | [34] > 100 µM | [58] > 100 µM | [35] > 100 µM | [36] > 100 µM | [37] > 100 µM | [38] > 100 µM | [39] > 100 µM | [59] > 100 µM | [40] > 100 µM | [41] > 100 µM | [42] > 100 µM | [43] > 100 µM | [44] > 100 µM | [45] > 100 µM | [46] > 100 µM | [48] > 100 µM | [49] > 100 µM | [50] > 100 µM | [51] > 100 µM | [52] > 100 µM | [53] > 100 µM | [54] 29.5 µM
> 100 µM: [47]

C[N+]1(C)C[C@@H](O)C[C@@H]1C(=O)[O-] [BETONICINE]
inactive: [1] > 100 µM | [2] > 100 µM | [3] > 100 µM | [4] > 100 µM | [5] > 100 µM | [6] > 100 µM | [7] > 100 µM | [8] > 100 µM | [9] > 100 µM | [10] > 100 µM | [11] > 100 µM | [12] > 100 µM | [13] > 100 µM | [14] > 100 µM | [15] > 100 µM | [16] > 100 µM | [17] > 100 µM | [18] > 100 µM | [20] > 100 µM | [21] > 100 µM | [22] > 100 µM | [23] > 100 µM | [24] > 100 µM | [25] > 100 µM | [55] > 100 µM | [56] > 100 µM | [26] > 100 µM | [57] > 100 µM | [28] > 100 µM | [29] > 100 µM | [30] > 100 µM | [31] > 100 µM | [32] > 100 µM | [33] > 100 µM | [34] > 100 µM | [58] > 100 µM | [35] > 100 µM | [36] > 100 µM | [37] > 100 µM | [38] > 100 µM | [39] > 100 µM | [59] > 100 µM | [40] > 100 µM | [41] > 100 µM | [42] > 100 µM | [43] > 100 µM | [44] > 100 µM | [46] > 100 µM | [48] > 100 µM | [50] > 100 µM | [51] > 100 µM | [52] > 100 µM | [53] > 100 µM | [54] > 100 µM
> 100 µM: [47]
